These results are taken from patent US9073855B2, “BCL-2 selective apoptosis-inducing agents for the treatment of cancer and immune diseases” (AbbVie Inc., priority 2008, dated 2015).

Each structure is given as a SMILES string. A value given as a limit tells only on which side of the number the result lay.

For assay [1], the target named is GST-Bcl-XL (Homo sapiens, UniProt Q07817). In words: TR-FRET binding assay, GST-Bcl-XL with F-Bak peptide probe. The note with it: TR-FRET Binding Affinity, GST-Bcl-XL, F-Bak peptide probe. A digest of the protocol:
(§1)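 Competitive TR-FRET: GST-fusion protein, fluorescent Bak peptide probe and Tb-labelled anti-GST antibody incubated with compound dilution series (starting 50 μM as 2× stock, 10% DMSO) for 3 h at RT. Excitation 340/35 nm; Ki derived via Wang's exact competitive-binding equation.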

For assay [2], the system named is FL5.12/Bcl-2 cells. The assay can be described thus: FL5.12/Bcl-2 cell viability assay under IL-3 withdrawal (CellTitre Glo). The note with it: Mus musculus, IL-3 withdrawn 48 hrs, then 24 hrs with compound. Format: cell-based, murine. A digest of the protocol:
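Viability measured with CellTiter-Glo after 24 h compound treatment at various concentrations, following 48 h IL-3 withdrawal (no WEHI-3B medium). Cells: prolymphocytic mouse FL5.12 line stably transfected to overexpress Bcl-2, cultured at 37 °C, 5% CO2.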

For assay [3], the target named is GST-Bcl-2 (Homo sapiens, UniProt P10415). In words: TR-FRET binding assay, GST-Bcl-2 with F-Bak peptide probe. The note with it: TR-FRET Binding Affinity, GST-Bcl-2, F-Bak peptide probe. The method in brief:
as §1
(In general: In TR-FRET formats the signal depends on donor and acceptor labels being close together.)

GST-Bcl-2, sequence (P10415 whole entry): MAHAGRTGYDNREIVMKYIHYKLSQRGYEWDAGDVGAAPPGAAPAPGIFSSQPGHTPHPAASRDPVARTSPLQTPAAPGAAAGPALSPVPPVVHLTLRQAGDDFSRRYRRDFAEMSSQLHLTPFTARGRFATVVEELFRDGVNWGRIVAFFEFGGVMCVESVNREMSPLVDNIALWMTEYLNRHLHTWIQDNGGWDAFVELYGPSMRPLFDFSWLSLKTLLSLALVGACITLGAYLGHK
GST-Bcl-XL, sequence (Q07817 whole entry, the tested form may be a part): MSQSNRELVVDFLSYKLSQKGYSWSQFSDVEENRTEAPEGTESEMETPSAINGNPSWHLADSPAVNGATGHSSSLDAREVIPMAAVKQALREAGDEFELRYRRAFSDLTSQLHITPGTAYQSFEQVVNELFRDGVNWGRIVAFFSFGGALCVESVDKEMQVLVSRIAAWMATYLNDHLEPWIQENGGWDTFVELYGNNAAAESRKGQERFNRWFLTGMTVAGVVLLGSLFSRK

As to `CC1(C)CCC(CN2CCN(c3ccc(C(=O)NS(=O)(=O)c4ccc(NN5CCOCC5)c([N+](=O)[O-])c4)c(Oc4ccc5[nH]ccc5c4)c3)CC2)=C(c2ccc(Cl)cc2)C1` [Example 260, 4-(4-{[2-(4-chlorophenyl)-4,4-dimethylcyclohex-1-en-1-yl]methyl}piperazin-1-yl)-2-(1H-indol-5-yloxy)-N-{[4-(morpholin-4-ylamino)-3-nitrophenyl]sulfonyl}benzamide], the values for the inhibition constant (Ki) in assay [1] and in assay [3] were more than 660 nM and 1.09 nM, respectively. In addition, the EC50 in assay [2] was found to be 59.4 nM.
In the same order, the values of `CC1(C)CCC(CN2CCN(c3ccc(C(=O)NS(=O)(=O)c4ccc(NN5CCOCC5)c([N+](=O)[O-])c4)c(Oc4cccc5[nH]ccc45)c3)CC2)=C(c2ccc(Cl)cc2)C1` [Example 262, 4-(4-{[2-(4-chlorophenyl)-4,4-dimethylcyclohex-1-en-1-yl]methyl}piperazin-1-yl)-2-(1H-indol-4-yloxy)-N-{[4-(morpholin-4-ylamino)-3-nitrophenyl]sulfonyl}benzamide] are more than 660 nM, 3 nM and 176 nM.
As for `CC1(C)CCC(CN2CCN(c3ccc(C(=O)NS(=O)(=O)c4ccc(NC5CCOCC5)c([N+](=O)[O-])c4)c(Oc4ccc5[nH]ccc5c4)c3)CC2)=C(c2ccc(Cl)cc2)C1` [Example 263, 4-(4-{[2-(4-chlorophenyl)-4,4-dimethylcyclohex-1-en-1-yl]methyl}piperazin-1-yl)-2-(1H-indol-5-yloxy)-N-{[3-nitro-4-(tetrahydro-2H-pyran-4-ylamino)phenyl]sulfonyl}benzamide], the figures for the Ki in assay [1] and in assay [3] were more than 660 nM and 0.316 nM, respectively. For the same molecule, the EC50 in assay [2] stood at 28.4 nM.
For `CC1(C)CCC(CN2CCN(c3ccc(C(=O)NS(=O)(=O)c4ccc(NCC5(C)COC5)c([N+](=O)[O-])c4)c(Oc4ccc5[nH]ccc5c4)c3)CC2)=C(c2ccc(Cl)cc2)C1` [Example 264, 4-(4-{[2-(4-chlorophenyl)-4,4-dimethylcyclohex-1-en-1-yl]methyl}piperazin-1-yl)-2-(1H-indol-5-yloxy)-N-[(4-{[(3-methyloxetan-3-yl)methyl]amino}-3-nitrophenyl)sulfonyl]benzamide], in that order: more than 660 nM, 0.235 nM and 25.7 nM.
Take `COC1CCC(Nc2ccc(S(=O)(=O)NC(=O)c3ccc(N4CCN(CC5=C(c6ccc(Cl)cc6)CC(C)(C)CC5)CC4)cc3Oc3ccc4[nH]ccc4c3)cc2[N+](=O)[O-])CC1` (stereo not drawn) [Example 265, 4-(4-{[2-(4-chlorophenyl)-4,4-dimethylcyclohex-1-en-1-yl]methyl}piperazin-1-yl)-2-(1H-indol-5-yloxy)-N-({4-[(4-methoxycyclohexyl)amino]-3-nitrophenyl}sulfonyl)benzamide]: the Ki in assay [1] was more than 660 nM; in assay [3], 1.7 nM. In assay [2], the EC50 stood at 244 nM.
In the same order, the values of `CC1(C)CCC(CN2CCN(c3ccc(C(=O)NS(=O)(=O)c4ccc(NCCCN5CCS(=O)(=O)CC5)c([N+](=O)[O-])c4)c(Oc4ccc5[nH]ccc5c4)c3)CC2)=C(c2ccc(Cl)cc2)C1` [Example 266, 4-(4-{[2-(4-chlorophenyl)-4,4-dimethylcyclohex-1-en-1-yl]methyl}piperazin-1-yl)-N-[(4-{[3-(1,1-dioxidothiomorpholin-4-yl)propyl]amino}-3-nitrophenyl)sulfonyl]-2-(1H-indol-5-yloxy)benzamide] are more than 660 nM, 0.183 nM and 11.5 nM.
In the same order, the values of `CC1(C)CCC(CN2CCN(c3ccc(C(=O)NS(=O)(=O)c4ccc(NCCN5CCCCC5=O)c([N+](=O)[O-])c4)c(Oc4ccc5[nH]ccc5c4)c3)CC2)=C(c2ccc(Cl)cc2)C1` [Example 267, 4-(4-{[2-(4-chlorophenyl)-4,4-dimethylcyclohex-1-en-1-yl]methyl}piperazin-1-yl)-2-(1H-indol-5-yloxy)-N-[(3-nitro-4-{[2-(2-oxopiperidin-1-yl)ethyl]amino}phenyl)sulfonyl]benzamide] are more than 660 nM, 0.454 nM and 56.4 nM.
On to `CC1(C)CCC(CN2CCN(c3ccc(C(=O)NS(=O)(=O)c4ccc(NCCN5CCNC5=O)c([N+](=O)[O-])c4)c(Oc4ccc5[nH]ccc5c4)c3)CC2)=C(c2ccc(Cl)cc2)C1` [Example 268, 4-(4-{[2-(4-chlorophenyl)-4,4-dimethylcyclohex-1-en-1-yl]methyl}piperazin-1-yl)-2-(1H-indol-5-yloxy)-N-[(3-nitro-4-{[2-(2-oxoimidazolidin-1-yl)ethyl]amino}phenyl)sulfonyl]benzamide], for which the values for the Ki in assay [1] and in assay [3] were 145 nM and 0.092 nM, respectively. In addition, in assay [2], the half-maximal effective concentration (EC50) came to 68.2 nM.
For `CC1(C)CCC(CN2CCN(c3ccc(C(=O)NS(=O)(=O)c4ccc(N5CCOCC5)c([N+](=O)[O-])c4)c(Oc4ccc5[nH]ccc5c4)c3)CC2)=C(c2ccc(Cl)cc2)C1` [Example 270, 4-(4-{[2-(4-chlorophenyl)-4,4-dimethylcyclohex-1-en-1-yl]methyl}piperazin-1-yl)-2-(1H-indol-5-yloxy)-N-[(4-morpholin-4-yl-3-nitrophenyl)sulfonyl]benzamide], in that order: more than 660 nM, 3.31 nM and 429 nM.
In the same order, the values of `COC1CCN(c2ccc(S(=O)(=O)NC(=O)c3ccc(N4CCN(CC5=C(c6ccc(Cl)cc6)CC(C)(C)CC5)CC4)cc3Oc3ccc4[nH]ccc4c3)cc2[N+](=O)[O-])CC1` [Example 271, 4-(4-{[2-(4-chlorophenyl)-4,4-dimethylcyclohex-1-en-1-yl]methyl}piperazin-1-yl)-2-(1H-indol-5-yloxy)-N-{[4-(4-methoxypiperidin-1-yl)-3-nitrophenyl]sulfonyl}benzamide] are more than 660 nM, 6.16 nM and more than 500 nM.
In the same order, the values of `O=C(NS(=O)(=O)c1ccc(NCC2CCOCC2)c([N+](=O)[O-])c1)c1ccc(N2CCN(CC3=C(c4ccc(Cl)cc4)CCC(N4CCCC4)C3)CC2)cc1Oc1ccc2[nH]ccc2c1` (stereo not drawn) [Example 272, 4-(4-{[2-(4-chlorophenyl)-5-pyrrolidin-1-ylcyclohex-1-en-1-yl]methyl}piperazin-1-yl)-2-(1H-indol-5-yloxy)-N-({3-nitro-4-[(tetrahydro-2H-pyran-4-ylmethyl)amino]phenyl}sulfonyl)benzamide] are more than 660 nM, 0.011 nM and 194 nM.
For the molecule `CC1(C)CCC(CN2CCN(c3ccc(C(=O)NS(=O)(=O)c4ccc(NCCN5CCNC(=O)C5)c([N+](=O)[O-])c4)c(Oc4ccc5[nH]ccc5c4)c3)CC2)=C(c2ccc(Cl)cc2)C1` [Example 273, 4-(4-{[2-(4-chlorophenyl)-4,4-dimethylcyclohex-1-en-1-yl]methyl}piperazin-1-yl)-2-(1H-indol-5-yloxy)-N-[(3-nitro-4-{[2-(3-oxopiperazin-1-yl)ethyl]amino}phenyl)sulfonyl]benzamide], the figures for the Ki in assay [1] and in assay [3] were 181 nM and 0.076 nM, respectively. The EC50 in assay [2] is 70 nM.
Take `CN(C)CCOc1ccc(-c2ccc(Cl)cc2)c(CN2CCN(c3ccc(C(=O)NS(=O)(=O)c4ccc(NN5CCN(C)CC5)c([N+](=O)[O-])c4)c(Oc4cccc5[nH]ccc45)c3)CC2)c1` [Example 274, 4-[4-({4′-chloro-4-[2-(dimethylamino)ethoxy]-1,1′-biphenyl-2-yl}methyl)piperazin-1-yl]-2-(1H-indol-4-yloxy)-N-({4-[(4-methylpiperazin-1-yl)amino]-3-nitrophenyl}sulfonyl)benzamide]: the figures for the Ki in assay [1] and in assay [3] were 32.9 nM and 0.135 nM, respectively. The EC50 in assay [2] stood at 155 nM.
On to `CC1(C)CCC(CN2CCN(c3ccc(C(=O)NS(=O)(=O)c4ccc(NCC5CCS(=O)(=O)C5)c([N+](=O)[O-])c4)c(Oc4ccc5[nH]ccc5c4)c3)CC2)=C(c2ccc(Cl)cc2)C1` (stereo not drawn) [Example 275, 4-(4-{[2-(4-chlorophenyl)-4,4-dimethylcyclohex-1-en-1-yl]methyl}piperazin-1-yl)-N-[(4-{[(1,1-dioxidotetrahydrothien-3-yl)methyl]amino}-3-nitrophenyl)sulfonyl]-2-(1H-indol-5-yloxy)benzamide], for which the Ki in assay [1] was more than 660 nM; in assay [3], 0.097 nM. In addition, in assay [2], the EC50 turned out to be 38 nM.
For `CC1(C)CCC(CN2CCN(c3ccc(C(=O)NS(=O)(=O)c4ccc(NC5CCS(=O)(=O)C5)c([N+](=O)[O-])c4)c(Oc4ccc5[nH]ccc5c4)c3)CC2)=C(c2ccc(Cl)cc2)C1` (stereo not drawn) [Example 276, 4-(4-{[2-(4-chlorophenyl)-4,4-dimethylcyclohex-1-en-1-yl]methyl}piperazin-1-yl)-N-({4-[(1,1-dioxidotetrahydrothien-3-yl)amino]-3-nitrophenyl}sulfonyl)-2-(1H-indol-5-yloxy)benzamide], in that order: 381 nM, 0.144 nM and 62.2 nM.
For `CC1(C)CCC(CN2CCN(c3ccc(C(=O)NS(=O)(=O)c4ccc(NCC5CCOCC5)c(C(F)(F)F)c4)c(Oc4ccc5[nH]ccc5c4)c3)CC2)=C(c2ccc(Cl)cc2)C1` [Example 277, 4-(4-{[2-(4-chlorophenyl)-4,4-dimethylcyclohex-1-en-1-yl]methyl}piperazin-1-yl)-2-(1H-indol-5-yloxy)-N-{[4-[(tetrahydro-2H-pyran-4-ylmethyl)amino]-3-(trifluoromethyl)phenyl]sulfonyl}benzamide], in that order: more than 660 nM, 29.7 nM and more than 500 nM.

A word on the Ki: it is a dissociation constant, usually derived from enzyme kinetics or from competition with a known ligand. What is called EC50 is the concentration at which the effect is half-maximal.
